Here are results for three compounds from patent publication US7345070B2, “Peroxisome proliferator activated receptor agonists” (Eli Lilly and Company, priority 2000, dated 2008).

The target in test [1] is T1, huPPARα (Homo sapiens, UniProt Q07869).
T1 sequence (Q07869 1-468): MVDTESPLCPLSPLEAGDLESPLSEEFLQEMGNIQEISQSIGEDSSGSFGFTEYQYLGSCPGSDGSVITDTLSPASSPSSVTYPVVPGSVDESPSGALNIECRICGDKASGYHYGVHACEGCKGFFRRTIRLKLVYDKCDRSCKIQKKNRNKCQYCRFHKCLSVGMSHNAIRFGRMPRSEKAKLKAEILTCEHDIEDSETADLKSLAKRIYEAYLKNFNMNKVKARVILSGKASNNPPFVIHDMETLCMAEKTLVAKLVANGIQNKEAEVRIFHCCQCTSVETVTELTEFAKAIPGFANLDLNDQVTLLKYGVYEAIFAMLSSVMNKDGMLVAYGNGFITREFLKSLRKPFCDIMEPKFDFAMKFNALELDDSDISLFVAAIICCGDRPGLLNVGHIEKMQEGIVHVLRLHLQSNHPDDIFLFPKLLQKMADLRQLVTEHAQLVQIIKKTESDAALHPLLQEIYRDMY
T1 sequence (P19793 1-462 partner): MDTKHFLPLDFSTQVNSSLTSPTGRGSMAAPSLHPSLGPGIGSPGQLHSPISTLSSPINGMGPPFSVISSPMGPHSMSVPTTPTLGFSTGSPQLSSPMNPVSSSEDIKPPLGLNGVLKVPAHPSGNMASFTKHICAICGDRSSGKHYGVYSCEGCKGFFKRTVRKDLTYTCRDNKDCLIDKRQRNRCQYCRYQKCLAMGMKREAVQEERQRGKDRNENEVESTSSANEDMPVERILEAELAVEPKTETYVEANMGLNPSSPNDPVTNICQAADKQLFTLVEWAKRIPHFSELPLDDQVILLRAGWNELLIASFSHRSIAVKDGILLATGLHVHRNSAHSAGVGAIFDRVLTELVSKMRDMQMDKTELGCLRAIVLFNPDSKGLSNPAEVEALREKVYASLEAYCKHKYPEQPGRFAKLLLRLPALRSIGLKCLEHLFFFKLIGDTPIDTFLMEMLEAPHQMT
In words: DNA-dependent binding (ABCD binding) using SPA technology, huPPARα. To be noted: SPA displacement of tritium-labeled PPARα agonist radioligand. The protocol: (§1) DNA-dependent binding (ABCD binding) was carried out using SPA technology with PPAR receptors. Tritium-labeled PPARα and PPARγ agonists were used as radioligands for generating displacement curves and IC50 values with compounds of the invention. Cotransfection assays were carried out in CV-1 cells. The reporter plasmid contained an acylCoA oxidase (AOX) PPRE and TK promoter upstream of the luciferase reporter cDNA. Appropriate PPARs and RXRα were constitutively expressed using plasmids containing the CMV promoter. […] In order to eliminate such interference, a GAL4 chimeric system was used in which the DNA binding domain of the transfected PPAR was replaced by that of GAL4, and the GAL4 response element was utilized in place of the AOX PPRE. Cotransfection efficacy was determined relative to PPARα agonist and PPARγ agonist reference molecules. Efficacies were determined by computer fit to a concentration-response curve, or in some cases at a single high concentration of agonist (10 μM). For binding or cotransfection studies with receptors other than PPARs, similar assays were carried out using appropriate ligands, receptors, reporter constructs, etc., for that particular receptor.
(§2) These studies were carried out to evaluate the ability of compounds of the invention to bind to and/or activate various nuclear transcription factors, particularly huPPARα (“hu” indicates “human”) and huPPARγ. These studies provide in vitro data concerning efficacy and selectivity of compounds of the invention. Furthermore, binding and cotransfection data for compounds of the invention were compared with corresponding data for marketed compounds that act on either huPPARα or huPPARγ.

Test [2] deals with T2, huPPARγ (Homo sapiens, UniProt P37231).
T2 sequence (P37231 1-505): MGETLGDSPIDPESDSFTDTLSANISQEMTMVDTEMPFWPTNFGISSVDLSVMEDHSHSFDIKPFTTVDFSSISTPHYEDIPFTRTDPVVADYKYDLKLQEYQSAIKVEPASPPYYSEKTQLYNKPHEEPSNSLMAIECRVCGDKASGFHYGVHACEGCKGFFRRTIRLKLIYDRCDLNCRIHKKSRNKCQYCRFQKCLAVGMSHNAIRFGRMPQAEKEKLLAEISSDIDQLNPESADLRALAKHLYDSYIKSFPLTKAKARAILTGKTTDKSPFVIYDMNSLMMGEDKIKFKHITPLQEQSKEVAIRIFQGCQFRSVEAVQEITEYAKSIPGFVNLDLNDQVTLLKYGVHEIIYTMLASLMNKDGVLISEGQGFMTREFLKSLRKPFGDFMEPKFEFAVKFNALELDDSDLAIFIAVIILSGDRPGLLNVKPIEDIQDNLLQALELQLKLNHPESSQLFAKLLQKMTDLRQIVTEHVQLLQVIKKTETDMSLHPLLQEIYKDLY
T2 sequence (P19793 1-462 partner): T1 sequence (P19793 1-462 partner)
Briefly: DNA-dependent binding (ABCD binding) using SPA technology, huPPARγ. To be noted: SPA displacement of tritium-labeled PPARγ agonist radioligand. The protocol: as §1, §2

Test [3] relates to huPPARα. In words: Cotransfection assay in CV-1 cells, huPPARα. The test is classed as cell-based, human. Particulars: GAL4 chimeric system, relative to PPARα agonist reference molecule. The method, then:
as §1, §2

For a further test, the system named is HuapoAI transgenic mice. In words: Evaluation of triglyceride and cholesterol level in HuapoAI transgenic mice. The test is classed as in vivo. To be noted: Mus musculus, 168 h; human apoAI transgenic mice, 30 mg/kg oral gavage daily for 7 days, FPLC area under the curve, over mice receiving vehicle; read-out: % HDLc Increase. The protocol: After an acclimation period of 2 weeks, animals were individually identified by ear notches, weighed, and assigned to groups based on body weight. Beginning the following morning, mice were dosed daily by oral gavage for 7 days using a 20 gauge, 1½″ curved disposable feeding needle (Popper & Sons). […] Prior to termination on day 7, mice were weighed and dosed. Three hours after dosing, animals were anesthetized by inhalation of isoflurane (2-4%; Abbott Laboratories, Chicago, Ill.) and blood obtained via cardiac puncture (0.7-1.0 ml). Whole blood was transferred to serum separator tubes (Vacutainer SST), chilled on ice, and permitted to clot. Serum was obtained after centrifugation at 4° C. and frozen until analysis for triglycerides, total cholesterol, compound levels, and serum lipoprotein profile by fast protein liquid chromatography (FPLC) coupled to an inline detection system. After sacrifice by cervical dislocation, the liver, heart and epididymal fat pads were excised and weighed.
The absorbance of the dye produced is linearly related to the analyte in the sample. The assays were further modified in our laboratory for use in a 96 well format. […] An additional aliquot of sample, pipetted to a third well and diluted in 200 μl water, provided a blank for each specimen. […] Sample absorbances were compared to a standard curve (100-800, 10-500, and 100-400 mg/dl for glucose, triglycerides and total cholesterol, respectively). […] All samples from an experiment were assayed at the same time to minimize inter-assay variability.
Serum lipoproteins were separated and cholesterol quantitated with an in-line detection system. Sample was applied to a Superose® 6 HR 10/30 size exclusion column (Amersham Pharmacia Biotech) and eluted with phosphate buffered saline-EDTA at 0.5 ml/min. […] The change in voltage corresponding to change in cholesterol concentration was plotted vs time and the area under the curve corresponding to the elution of VLDL, LDL and HDL was calculated using Perkin Elmer Turbochrome software.

Test [4] has as its target T2, huPPARγ. Briefly: Cotransfection assay in CV-1 cells, huPPARγ. It counts as cell-based. More on the design: Appropriate PPARs and RXRα were constitutively expressed using plasmids containing the CMV promoter; expressed in transfected cells; host or cells: CV-1 cells. To be noted: AOX PPRE luciferase reporter, relative to PPARγ agonist reference molecule; for Emax: read-out: huPPARγ CTF Efficacy. The protocol:
as §1, §2

As a reminder, the IC50 is the point on the concentration scale where inhibition reaches its midpoint. A lower IC50 goes with inhibition by little substance. Take `Cc1oc(C2CCCCC2)nc1CCOc1ccc(CC(C)(Oc2ccc(Cl)cc2)C(=O)O)cc1` (stereo not drawn) [Example 31, 2-(4-Chlorophenoxy)-3-{4-[2-(2-cyclohexyl-5-methyl-oxazol-4-yl)-ethoxy]-phenyl}-2-methyl-propionic acid]: the IC50 on huPPARα [1] came out at 53 nM; on huPPARγ [2], 19 nM. Further, the “huPPARα CTF Efficacy” value in the test on huPPARα [3] came out at 63%. Also, the change in vivo at 30 mg/kg in the test with HuapoAI transgenic mice turned out to be 114%. Moreover, at huPPARγ [4], the Emax is 73%.
For `CCC(Cc1ccc(OCCc2nc(C3(C)CCCCC3)oc2C)cc1)(Oc1ccccc1)C(=O)O` (stereo not drawn) [Example 49, 2-(4-{2-[5-Methyl-2-(1-methyl-cyclohexyl)-oxazol-4-yl]-ethoxy}-benzyl)-2-phenoxy-butyric acid] the same measures were 175 nM, 655 nM, 63%, 17% and 58%.
As for `CC(C)(Oc1ccc(C(=O)c2ccc(Cl)cc2)cc1)C(=O)O` [Fenofibric acid, reference compound], the “huPPARα CTF Efficacy” value in the test on huPPARα [3] worked out at 16%. In addition, on huPPARγ [4], the “huPPARγ CTF Efficacy” value worked out at 0%.
